Results published in patent US20230047788A1, “COMPOSITIONS COMPRISING 5-CHOLESTEN-3, 25-DIOL, 3-SULFATE (25HC3S) OR PHARMACEUTICALLY ACCEPTABLE SALT THEREOF AND AT LEAST ONE CYCLIC OLIGOSACCHARIDE” (Virginia Commonwealth University, priority 2016, published 2023).

Experiment: Effect of phosphate and borate buffers on chemical stability (% remaining, impurity profile), osmolality, pH and appearance of 25HC3S 30 mg/mL in 250 mg/mL HPBCD at 80°C and 60°C
Assay type: physicochemical
Method: A total of six 25HC3S formulations at 30 mg/mL in 250 mg/mL of 2-hydroxypropyl beta cyclodextrin (HPBCD) containing 10, 20, 50 and 100 mM phosphate buffers at pH 7.5 to 8.1 and 10 and 50 mM borate buffers at pH 9.4 were prepared for the stability study. The chemical stability (measured as % remaining of 25HC3S) and physical stability (osmolality, pH and appearance) of the formulations were monitored under accelerated conditions for up to 7 days at 80° C. and up to 29 days at 60° C.
Two stock solutions of phosphate buffer at 100 and 200 mM at pH 7.4 and 7.3, respectively and one borate buffer at 100 mM at pH 9.3 were prepared (Tables 22A and 22B) and used for 250 mg/mL HPBCD vehicles preparation (Table 23).
Approximately 1200 mg each of 25HC3S was weighed into 40 mL volumetric flasks and diluted to volume with the six HPBCD vehicles containing 10-100 mM phosphate buffers or 10 and 50 mM borate buffers, respectively (Table 24). The final concentration of 25HC3S was 30 mg/mL (wt/volume, without adjusting for API purity). Aliquots of 2 mL of each formulation were filled into 2 mL glass vials, stoppered and sealed for stability sample set-up at 60° C. and 80° C. to study the effect of phosphate buffer (pH 7.5-8.1) and borate buffer (pH 9.4) at various buffer concentrations on the stability of the HPBCD formulations (Table 26).
A 0.5 mL of sample solution was transferred to a 25 mL volumetric flask and QS'ed with methanol/water=95/5 for 25HC3S concentration determination by HPLC. The % remaining of 25HC3S was calculated as follows: […]

[1] = 60° C., day 0, Phosphate 100 mM
[2] = 60° C., day 29, Phosphate 10 mM
[3] = 60° C., day 29, Phosphate 20 mM
[4] = 60° C., day 29, Phosphate 50 mM
[5] = 60° C., day 29, Phosphate 100 mM

C[C@H](CCCC(C)(C)O)[C@H]1CC[C@H]2[C@@H]3CC=C4C[C@@H](OS(=O)(=O)[O-])CC[C@]4(C)[C@H]3CC[C@]12C.[Na+] [25HC3S, 5-cholesten-3, 25-diol, 3-sulfate]
pH (60° C., day 0, Borate 50 mM): 9.40
25HC3S (60° C., day 0, Phosphate 10 mM): 28.45 mg/mL
% Peak Area 25-Hydroxy Cholesterol at RRT = 3.67 (60° C., day 0, Phosphate 10 mM): 0.0 % Peak Area
% Peak Area 25HC3S (60° C., day 0, Phosphate 10 mM): 99.8 % Peak Area
% Peak Area Major Thermal Degradant at RRT = 2.64 (60° C., day 0, Phosphate 10 mM): 0.3 % Peak Area
% Remaining of 25HC3S (60° C., day 0, Phosphate 10 mM): 100.0%
Osmolality (60° C., day 0, Phosphate 10 mM): 273 mmol/kg
pH (60° C., day 0, Phosphate 10 mM): 8.09
25HC3S (60° C., day 0, Phosphate 20 mM): 28.63 mg/mL
% Peak Area 25-Hydroxy Cholesterol at RRT = 3.67 (60° C., day 0, Phosphate 20 mM): 0.0 % Peak Area
% Peak Area 25HC3S (60° C., day 0, Phosphate 20 mM): 99.7 % Peak Area
% Peak Area Major Thermal Degradant at RRT = 2.64 (60° C., day 0, Phosphate 20 mM): 0.3 % Peak Area
% Remaining of 25HC3S (60° C., day 0, Phosphate 20 mM): 100.0%
Osmolality (60° C., day 0, Phosphate 20 mM): 311 mmol/kg
pH (60° C., day 0, Phosphate 20 mM): 7.81
25HC3S (60° C., day 0, Phosphate 50 mM): 28.50 mg/mL
% Peak Area 25-Hydroxy Cholesterol at RRT = 3.67 (60° C., day 0, Phosphate 50 mM): 0.0 % Peak Area
% Peak Area 25HC3S (60° C., day 0, Phosphate 50 mM): 99.7 % Peak Area
% Peak Area Major Thermal Degradant at RRT = 2.64 (60° C., day 0, Phosphate 50 mM): 0.3 % Peak Area
% Remaining of 25HC3S (60° C., day 0, Phosphate 50 mM): 100.0%
Osmolality (60° C., day 0, Phosphate 50 mM): 415 mmol/kg
pH (60° C., day 0, Phosphate 50 mM): 7.63
25HC3S [1]: 28.58 mg/mL
% Peak Area 25-Hydroxy Cholesterol at RRT = 3.67 [1]: 0.0 % Peak Area
% Peak Area 25HC3S [1]: 99.8 % Peak Area
% Peak Area Major Thermal Degradant at RRT = 2.64 [1]: 0.3 % Peak Area
% Remaining of 25HC3S [1]: 100.0%
Osmolality [1]: 573 mmol/kg
pH [1]: 7.53
25HC3S (60° C., day 29, Borate 10 mM): 26.55 mg/mL
% Peak Area 25-Hydroxy Cholesterol at RRT = 3.67 (60° C., day 29, Borate 10 mM): 1.3 % Peak Area
% Peak Area 25HC3S (60° C., day 29, Borate 10 mM): 98.5 % Peak Area
% Peak Area Major Thermal Degradant at RRT = 2.64 (60° C., day 29, Borate 10 mM): 0.3 % Peak Area
% Remaining of 25HC3S (60° C., day 29, Borate 10 mM): 92.9%
Osmolality (60° C., day 29, Borate 10 mM): 326 mmol/kg
pH (60° C., day 29, Borate 10 mM): 8.90
25HC3S (60° C., day 29, Borate 50 mM): 27.03 mg/mL
% Peak Area 25-Hydroxy Cholesterol at RRT = 3.67 (60° C., day 29, Borate 50 mM): 1.3 % Peak Area
% Peak Area 25HC3S (60° C., day 29, Borate 50 mM): 98.5 % Peak Area
% Peak Area Major Thermal Degradant at RRT = 2.64 (60° C., day 29, Borate 50 mM): 0.3 % Peak Area
% Remaining of 25HC3S (60° C., day 29, Borate 50 mM): 94.8%
Osmolality (60° C., day 29, Borate 50 mM): 541 mmol/kg
pH (60° C., day 29, Borate 50 mM): 9.19
25HC3S [2]: 26.65 mg/mL
% Peak Area 25-Hydroxy Cholesterol at RRT = 3.67 [2]: 1.4 % Peak Area
% Peak Area 25HC3S [2]: 98.3 % Peak Area
% Peak Area Major Thermal Degradant at RRT = 2.64 [2]: 0.3 % Peak Area
% Remaining of 25HC3S [2]: 93.7%
Osmolality [2]: 281 mmol/kg
pH [2]: 7.04
25HC3S [3]: 26.78 mg/mL
% Peak Area 25-Hydroxy Cholesterol at RRT = 3.67 [3]: 1.4 % Peak Area
% Peak Area 25HC3S [3]: 98.3 % Peak Area
% Peak Area Major Thermal Degradant at RRT = 2.64 [3]: 0.3 % Peak Area
% Remaining of 25HC3S [3]: 93.5%
Osmolality [3]: 322 mmol/kg
pH [3]: 7.17
25HC3S [4]: 26.63 mg/mL
% Peak Area 25-Hydroxy Cholesterol at RRT = 3.67 [4]: 1.4 % Peak Area
% Peak Area 25HC3S [4]: 98.3 % Peak Area
% Peak Area Major Thermal Degradant at RRT = 2.64 [4]: 0.3 % Peak Area
% Remaining of 25HC3S [4]: 93.4%
Osmolality [4]: 430 mmol/kg
pH [4]: 7.28
25HC3S [5]: 26.63 mg/mL
% Peak Area 25-Hydroxy Cholesterol at RRT = 3.67 [5]: 1.4 % Peak Area
% Peak Area 25HC3S [5]: 98.4 % Peak Area
% Peak Area Major Thermal Degradant at RRT = 2.64 [5]: 0.3 % Peak Area
% Remaining of 25HC3S [5]: 93.2%
Osmolality [5]: 592 mmol/kg
pH [5]: 7.28
Appearance (60° C., days 0 and 29, Borate 10 and 50 mM, merged cell wrapped over r16-r18: Clear colorless solution): Clear
Appearance (60° C., days 0 and 29, Phosphate 10, 20, 50 and 100 mM, merged cell wrapped over r8-r10: Clear colorless solution): Clear
% Peak Area 25-Hydroxy Cholesterol at RRT = 3.67 (80° C., day 0, Borate 10 mM): 0.0 % Peak Area
% Peak Area 25HC3S (80° C., day 0, Borate 10 mM): 99.7 % Peak Area
% Peak Area Major Thermal Degradant at RRT = 2.64 (80° C., day 0, Borate 10 mM): 0.3 % Peak Area
% Peak Area 25-Hydroxy Cholesterol at RRT = 3.67 (80° C., day 0, Borate 50 mM): 0.0 % Peak Area
% Peak Area 25HC3S (80° C., day 0, Borate 50 mM): 99.9 % Peak Area
% Peak Area Major Thermal Degradant at RRT = 2.64 (80° C., day 0, Borate 50 mM): 0.2 % Peak Area
% Peak Area 25-Hydroxy Cholesterol at RRT = 3.67 (80° C., day 0, Phosphate 10 mM): 0.0 % Peak Area
% Peak Area 25HC3S (80° C., day 0, Phosphate 10 mM): 99.8 % Peak Area
